Target: RAF proto-oncogene serine/threonine-protein kinase (Homo sapiens, UniProt P04049)
Experiment: Inhibition of Raf1 kinase

RAF proto-oncogene serine/threonine-protein kinase, sequence (P04049 whole entry): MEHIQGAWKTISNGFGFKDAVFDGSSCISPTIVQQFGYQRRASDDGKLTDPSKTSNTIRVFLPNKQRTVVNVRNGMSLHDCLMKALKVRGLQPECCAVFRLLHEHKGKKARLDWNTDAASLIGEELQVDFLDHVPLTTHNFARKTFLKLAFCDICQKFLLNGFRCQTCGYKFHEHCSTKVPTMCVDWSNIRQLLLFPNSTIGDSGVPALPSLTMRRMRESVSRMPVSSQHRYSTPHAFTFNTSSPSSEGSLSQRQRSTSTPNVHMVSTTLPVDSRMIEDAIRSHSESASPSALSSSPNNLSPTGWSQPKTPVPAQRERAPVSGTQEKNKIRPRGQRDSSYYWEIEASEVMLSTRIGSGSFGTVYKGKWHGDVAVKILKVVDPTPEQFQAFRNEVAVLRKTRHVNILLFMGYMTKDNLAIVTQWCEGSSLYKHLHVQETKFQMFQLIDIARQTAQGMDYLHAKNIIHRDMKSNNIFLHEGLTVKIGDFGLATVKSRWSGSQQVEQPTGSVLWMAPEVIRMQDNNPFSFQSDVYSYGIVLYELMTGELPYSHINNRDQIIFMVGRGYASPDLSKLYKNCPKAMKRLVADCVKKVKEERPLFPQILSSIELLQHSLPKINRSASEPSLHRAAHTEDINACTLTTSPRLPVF

Compound | IC50 [nM]
Cc1cccc(C)c1/C=C/c1cncc(C#N)c1 | 1000
CNC(=O)Oc1cc(C)c(/C=C/c2cncc(C#N)c2)c(C)c1 | 40
CNC(=O)Oc1cc(C)c(/C=C/c2cncc(C(N)=O)c2)c(C)c1 | 7
CNC(=O)Oc1cc(C)c(/C=C/c2cncc(C(=O)O)c2)c(C)c1 | 6
Oc1cc(-c2nc(-c3ccccc3)[nH]c2-c2ccncc2)ccc1Cl | 1.4
Cc1cc(-c2cccnc2)cc(C)c1/C=C/c1cncc(-c2nn[nH]n2)c1 | 630
Cc1cc(-c2ccccn2)cc(C)c1/C=C/c1cncc(-c2nn[nH]n2)c1 | 100
CNC(=O)Oc1cc(C)c(/C=C/c2cncc(C(=O)NC)c2)c(C)c1 [GW432441X] | 10
Cc1cc(O)cc(C)c1/C=C/c1cncc(C(N)=O)c1 [GW435821X] | 158
CNC(=O)c1cncc(/C=C/c2c(C)cccc2C)c1 [GW445012X] | 250
CNC(=O)c1cncc(/C=C/c2c(Cl)cccc2Cl)c1 [GW445014X] | 251

Continued, values first:

IC50 [nM] | Compound
6300 | CC(C)(C)c1cc(NC(=O)Nc2ccc(Oc3ccc(C(=O)O)cc3)cc2)no1
25000 | COC(=O)c1nc(C(C)(C)C)sc1NC(=O)Nc1ccc(C)cc1
13 | NC(=O)c1cc(Oc2ccc(NC(=O)Nc3ccc(Cl)c(C(F)(F)F)c3)cc2)ccn1
6300 | CC(C)(C)c1nnc(NC(=O)Nc2ccc(Oc3ccncc3)cc2)o1
3500 | CN(c1ccncc1)c1ccc(NC(=O)Nc2cc(C(C)(C)C)on2)cc1
8600 | CC(C)(C)c1nnc(NC(=O)Nc2ccc(Oc3ccncc3)cc2)s1

Source: ChEMBL document CHEMBL1143922, “Pharmacophore identification of Raf-1 kinase inhibitors” (Bioorg Med Chem Lett, 2008)
